Test results from ChEMBL document CHEMBL1799982, “Synthesis, protein kinase inhibitory potencies, and in vitro antiproliferative activities of meridianin derivatives” (J Med Chem, 2011).

Columns and labels:
IMR-32 = assay: Antiproliferative activity against human IMR32 cells by MTS reduction assay
PC-3 = assay: Antiproliferative activity against human PC3 cells after 48 hrs by resazurin reduction test; settings: PC-3, 48 h
[1] = biological target: Glycogen synthase kinase-3 (Sus scrofa, UniProt B2LUN4+I6LNT8); assay: Inhibition of pig brain GSK-3alpha/beta using YRRAAVPPSPSLSRHSSPHQSpEDEEE as substrate
[2] = biological target: Dual specificity protein kinase CLK1 (Homo sapiens, UniProt P49759)
Sequence of Dual specificity protein kinase CLK1 (P49759 whole entry): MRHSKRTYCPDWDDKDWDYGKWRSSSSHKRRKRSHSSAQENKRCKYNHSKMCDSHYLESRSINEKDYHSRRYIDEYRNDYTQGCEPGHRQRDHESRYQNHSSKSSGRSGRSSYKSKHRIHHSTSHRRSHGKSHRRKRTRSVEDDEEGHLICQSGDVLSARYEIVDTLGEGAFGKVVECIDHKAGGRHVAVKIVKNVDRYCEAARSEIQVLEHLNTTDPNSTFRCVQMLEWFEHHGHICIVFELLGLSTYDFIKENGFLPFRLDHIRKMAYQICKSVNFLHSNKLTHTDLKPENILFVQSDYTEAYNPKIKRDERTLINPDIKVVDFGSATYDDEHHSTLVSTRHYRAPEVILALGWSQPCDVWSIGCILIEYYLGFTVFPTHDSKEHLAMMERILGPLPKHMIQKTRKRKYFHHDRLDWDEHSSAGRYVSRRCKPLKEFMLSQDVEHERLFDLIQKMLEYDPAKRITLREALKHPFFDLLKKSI

[3] = Antiproliferative activity against human primary fibroblasts after 48 hrs by resazurin reduction test; format: cell-based; settings: Fibroblast
SH-SY5Y = assay: Antiproliferative activity against human SH-SY5Y cells by MTS reduction assay
PA-1 = assay: Antiproliferative activity against human PA1 cells after 48 hrs by resazurin reduction test; format: functional, cell-based; settings: PA-1, 48 h
[4] = biological target: Cyclin-dependent kinase 5/CDK5 activator 1 (Homo sapiens, UniProt Q00535); assay: Inhibition of human recombinant CDK5/p25 using Histone H1 and [gamma32]-ATP after 30 mins by scintillation counting; format: protein-complex assay
Sequence of Cyclin-dependent kinase 5/CDK5 activator 1 (Q00535 whole entry): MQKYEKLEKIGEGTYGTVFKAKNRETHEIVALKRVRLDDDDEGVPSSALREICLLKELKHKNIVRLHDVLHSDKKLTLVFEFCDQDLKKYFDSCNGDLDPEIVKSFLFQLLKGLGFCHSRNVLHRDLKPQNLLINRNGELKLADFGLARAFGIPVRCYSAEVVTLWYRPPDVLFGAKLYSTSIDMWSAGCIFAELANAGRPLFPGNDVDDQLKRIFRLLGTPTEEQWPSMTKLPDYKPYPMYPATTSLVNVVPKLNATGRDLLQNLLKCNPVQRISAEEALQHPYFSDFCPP
Sequence of Cyclin-dependent kinase 5/CDK5 activator 1 (Q15078 whole entry, further chain): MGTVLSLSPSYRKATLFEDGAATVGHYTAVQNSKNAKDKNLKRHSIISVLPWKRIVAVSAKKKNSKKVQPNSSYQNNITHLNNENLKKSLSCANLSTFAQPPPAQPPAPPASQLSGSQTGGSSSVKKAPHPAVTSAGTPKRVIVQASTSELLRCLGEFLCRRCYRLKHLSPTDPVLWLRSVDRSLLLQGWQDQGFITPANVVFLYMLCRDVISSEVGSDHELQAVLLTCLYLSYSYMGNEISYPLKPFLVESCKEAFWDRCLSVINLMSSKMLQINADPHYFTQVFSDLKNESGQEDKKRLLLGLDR

DU-145 = assay: Antiproliferative activity against human DU145 cells after 48 hrs by resazurin reduction test; format: functional, cell-based; settings: DU-145, 48 h
[5] = Inhibition of pig brain CK1 delta/epsilon using RRKHAAIGpSAYSITA as substrate; design: species or system Sus scrofa
[6] = biological target: Dual specificity tyrosine-phosphorylation-regulated kinase 1A (Rattus norvegicus, UniProt Q63470); assay: Inhibition of rat recombinant GST-tagged DYRK1A using myelin protein as substrate and [gamma32]-ATP after 30 mins by scintillation counting
HT-22 = assay: Antiproliferative activity against mouse HT22 cells by MTS reduction assay
MCF7 = assay: Antiproliferative activity against human MCF7 cells after 48 hrs by resazurin reduction test; settings: MCF7, 48 h

Structure (SMILES): Nc1ncc(I)c(-c2c[nH]c3cc(Br)ccc23)n1
- IC50 (IMR-32): 3.8 µM
- IC50 (PC-3): 2.9 µM
- IC50 [1]: 1.1 µM
- IC50 [2]: 0.032 µM
- IC50 [3]: 3.5 µM
- IC50 (SH-SY5Y): 3.2 µM
- IC50 (PA-1): < 1 µM
- IC50 [4]: 0.68 µM
- IC50 (DU-145): < 1 µM
- IC50 [5]: 0.7 µM
- IC50 [6]: 0.034 µM
- IC50 (HT-22): 5.1 µM
- IC50 (MCF7): 5.2 µM

Structure (SMILES): Nc1ncc(I)c(-c2c[nH]c3cc([N+](=O)[O-])ccc23)n1
- IC50 (IMR-32): 10 µM
- IC50 (PC-3): 11 µM
- IC50 [1]: 2.6 µM
- IC50 [2]: 0.067 µM
- IC50 [3]: 13 µM
- IC50 (SH-SY5Y): 12 µM
- IC50 (PA-1): 2 µM
- IC50 [4]: 1.6 µM
- IC50 (DU-145): 6.3 µM
- IC50 [5]: 1 µM
- IC50 [6]: 0.095 µM
- IC50 (HT-22): 18 µM
- IC50 (MCF7): > 25 µM

Structure (SMILES): Nc1ncc(I)c(-c2c[nH]c3ccccc23)n1
- IC50 (IMR-32): 10 µM
- IC50 (PC-3): 10.6 µM
- IC50 [1]: 3.7 µM
- IC50 [2]: 0.03 µM
- IC50 [3]: 8 µM
- IC50 (SH-SY5Y): 7.5 µM
- IC50 (PA-1): 3.3 µM
- IC50 [4]: 1.4 µM
- IC50 (DU-145): 5 µM
- IC50 [5]: 0.9 µM
- IC50 [6]: 0.066 µM
- IC50 (HT-22): 7.3 µM
- IC50 (MCF7): 17 µM

Structure (SMILES): Nc1ccc2[nH]cc(-c3nc(N)ncc3I)c2c1
- IC50 (IMR-32): > 10 µM
- IC50 (PC-3): 48 µM
- IC50 [1]: > 10 µM
- IC50 [2]: 0.61 µM
- IC50 [3]: 44 µM
- IC50 (SH-SY5Y): > 10 µM
- IC50 (PA-1): 11 µM
- IC50 [4]: > 10 µM
- IC50 (DU-145): 40 µM
- IC50 [5]: 0.27 µM
- IC50 [6]: 2.3 µM
- IC50 (HT-22): > 10 µM
- IC50 (MCF7): > 10 µM

Structure (SMILES): CC(=O)c1ccc(-c2cnc(N)nc2-c2c[nH]c3c(Br)cccc23)cc1
- IC50 (IMR-32): > 10 µM
- IC50 (PC-3): 3.6 µM
- IC50 [1]: 4.5 µM
- IC50 [2]: 0.38 µM
- IC50 [3]: 18.4 µM
- IC50 (SH-SY5Y): > 10 µM
- IC50 (PA-1): 0.8 µM
- IC50 [4]: > 10 µM
- IC50 (DU-145): 5.7 µM
- IC50 [5]: > 10 µM
- IC50 [6]: 0.29 µM
- IC50 (HT-22): > 10 µM
- IC50 (MCF7): > 10 µM

Structure (SMILES): Nc1ncc(I)c(-c2c[nH]c3c(Br)cccc23)n1
- IC50 (IMR-32): 7.3 µM
- IC50 (PC-3): 15 µM
- IC50 [1]: 4 µM
- IC50 [2]: 0.042 µM
- IC50 [3]: 10 µM
- IC50 (SH-SY5Y): 8 µM
- IC50 (PA-1): 2 µM
- IC50 [4]: 2.1 µM
- IC50 (DU-145): 4.2 µM
- IC50 [5]: 1.6 µM
- IC50 [6]: 0.039 µM
- IC50 (HT-22): 12 µM
- IC50 (MCF7): 17 µM

Structure (SMILES): CC(=O)Nc1ccc(-c2cnc(N)nc2-c2c[nH]c3cc(Br)ccc23)cc1
- IC50 (IMR-32): > 10 µM
- IC50 (PC-3): 14 µM
- IC50 [1]: 1.6 µM
- IC50 [2]: 0.53 µM
- IC50 [3]: 24 µM
- IC50 (SH-SY5Y): > 10 µM
- IC50 (PA-1): 12 µM
- IC50 [4]: > 10 µM
- IC50 (DU-145): 20 µM
- IC50 [5]: 8.1 µM
- IC50 [6]: 3.1 µM
- IC50 (HT-22): > 10 µM
- IC50 (MCF7): > 10 µM

Structure (SMILES): Nc1ncc(I)c(-c2c[nH]c3c([N+](=O)[O-])cccc23)n1
- IC50 (IMR-32): > 10 µM
- IC50 (PC-3): 6 µM
- IC50 [1]: > 10 µM
- IC50 [2]: 0.041 µM
- IC50 [3]: 4.7 µM
- IC50 (SH-SY5Y): > 10 µM
- IC50 (PA-1): 3.2 µM
- IC50 [4]: > 10 µM
- IC50 (DU-145): 5.2 µM
- IC50 [5]: > 10 µM
- IC50 [6]: 0.46 µM
- IC50 (HT-22): > 10 µM
- IC50 (MCF7): > 10 µM

Structure (SMILES): Nc1ncc(-c2ccc(C(F)(F)F)cc2)c(-c2c[nH]c3c(Br)cccc23)n1
- IC50 (IMR-32): > 10 µM
- IC50 (PC-3): 8 µM
- IC50 [1]: 8.5 µM
- IC50 [2]: 1.5 µM
- IC50 [3]: 14 µM
- IC50 (SH-SY5Y): > 10 µM
- IC50 (PA-1): 17 µM
- IC50 [4]: > 10 µM
- IC50 (DU-145): 18 µM
- IC50 [5]: > 10 µM
- IC50 [6]: 1.25 µM
- IC50 (HT-22): > 10 µM
- IC50 (MCF7): > 10 µM
